Test results: paper PMC6222316, “UPLC-MS/MS Method for the Determination of 14 Compounds in Rat Plasma and Its Application in a Pharmacokinetic Study of Orally Administered Xiaoyao Powder” (Molecules : A Journal of Synthetic Chemistry and Natural …, 2018)
Where two headings read alike, the source gives them in different places.

Experiment: Pharmacokinetic study of 14 compounds in rat plasma after oral administration of XYP (UPLC-MS/MS)
Assay type: in vivo, Sprague–Dawley rats
Parameters: Kel (elimination rate constant): unit not given here
Settings: oral XYP 4 g/kg; for AUC(0-inf) / AUC(0-t) / Cmax / half-life / MRT last / MRT inf / Tmax: female, Sprague-Dawley; for MRT last: n = 6, read-out: MRT0–t; for MRT inf: n = 6, read-out: MRT0–∞; for Tmax: rat, plasma, po, 4 g/kg
Method: The validated UPLC-MS/MS method was successfully applied to the pharmacokinetic study of 14 compounds in rat plasma after the oral administration of XYP at a dose of 4 g/kg (8-fold the clinical dosage).
Quantitative analysis was conducted on a Waters® Micromass® Quattro Premier™ XE triple-quadrupole tandem mass spectrometer (Waters Corp., Milford, MA, USA). Chromatographic separation was performed on an ACQUITY UPLCTM BEH C18 column (1.7 µm, 50 × 2.1 mm; Waters Corp.) equipped with an ACQUITY UPLC C18 guard column. The column temperature was maintained at 35 °C. The mobile phase consisted of 0.1% formic acid in water (A) and acetonitrile (B). The total flow rate was 0.3 mL/min. Chromatographic separation was achieved using a 14.5-min gradient elution. The gradient conditions of the mobile phase were as follows: 0–4 min, 4–22% (B); 4–5 min, 22–27% (B); 5–10 min, 27–50% (B); and 10–14.5 min, 50–96% (B). The samples were kept at 4 °C in the auto-sampler, and the injection volume was 5 µL.
Methanol (1.5 mL), 10 μg/mL IS and 300 μL plasma was mixed, then vortexed for 1 min. After centrifuging at 14,000× g for 10 min, the supernatant was put into another centrifuge tube. The residue was vortexed with another 1.5 mL methanol and centrifuged again, and the two supernatants were combined and evaporated to dryness under a flow of nitrogen gas at 40 °C. The residue was then dissolved in 100 μL methanol and vortexed for 1 min. Finally, the vortexing and centrifugation process was again repeated, and 5 μL of the supernatant was injected into the UPLC-MS/MS system for analysis.
Twenty healthy female Sprague–Dawley rats (300 ± 20 g) were purchased from the Animal Safety Evaluation Center of Heilongjiang University of Chinese Medicine (Heilongjiang, China). All protocols for animal experiments were approved in accordance with the Regulations of Experimental Animal Administration issued by the State Commission of Science and Technology of the People’s Republic of China. The rats were kept under a light/dark cycle of 12 h, within the temperature range of 24 °C ± 2 °C to room temperature, and at a humidity of 50 ± 10%. All rats were fasted for 12 h before experimentation but were allowed to drink freely. XYP extract was dissolved in water, and the rats were administrated orally with 4 g/kg XYP. Blood samples were collected from the suborbital venous lexus at 0, 0.083, 0.17, 0.33, 0.50, 0.75, 1.0, 2.0, 4.0, 8.0, 12 and 24 h into 1.5-mL heparinized polythene tubes […]. The blood samples were immediately centrifuged at 4500 rpm for 10 min, and the plasma was stored at −80 °C until analysis. The pharmacokinetic parameters (Cmax, tmax, t1/2, Kel, AUC0–t, AUC0–∞, MRT0–t, MRT0–∞) were calculated with the software Winnolin 3.2.

[1] = mean ± SD, n = 6, read-out: tmax
[2] = read-out: tmax (time to maximum plasma concentration)

Row | Compound | AUC(0-inf) (mean ± SD, n = 6) [ng·h/mL] | AUC(0-t) (mean ± SD, n = 6) [ng·h/mL] | Cmax (mean ± SD, n = 6) [ng/mL] | half-life (mean ± SD, n = 6) [h] | MRT last (mean ± SD) [h] | MRT inf (mean ± SD) [h] | Tmax [1] [h] | shape of plasma concentration-time curve | Kel (elimination rate constant) (mean ± SD, n = 6) | Tmax [2] [h] | time of first detection in plasma [min] | time of second maximal plasma concentration | t1/2 (mean ± SD, n = 6) [h]
1 | CCC/C=C1\OC(=O)C2=C1CCC=C2 [Ligustilide, ligustilide] | 207 ± 58.5 | 194 ± 57.7 | 65 ± 42.2 | 5.44 ± 3.09 | 5.63 ± 2.32 | 7.47 ± 4.23 | 0.31 ± 0.13 | – | 0.17 ± 0.10 | ~0.3 | – | – | –
2 | CC1(C)[C@@H](O[C@H]2O[C@H](C(=O)O)[C@@H](O)[C@H](O)[C@H]2O[C@@H]2O[C@H](C(=O)O)[C@@H](O)[C@H](O)[C@H]2O)CC[C@]2(C)[C@H]3C(=O)C=C4[C@@H]5C[C@@](C)(C(=O)O)CC[C@]5(C)CC[C@@]4(C)[C@]3(C)CC[C@@H]12 [Glycyrrhizic acid, glycyrrhizic acid] | 156 ± 59.6 | 138 ± 57 | 18.6 ± 6.61 | 7.63 ± 5.35 | 10.1 ± 0.58 | 13.6 ± 5.72 | 0.33 ± 0.11 | double peaks | 0.12 ± 0.05 | – | – | – | –
3 | CC12CC(O)C3CC1(OC1OC(CO)C(O)C(O)C1O)C3(COC(=O)c1ccccc1)C(=O)O2 (centres unmarked) [Albiflorin, albiflorin] | 135 ± 65.6 | 128 ± 64.9 | 58.3 ± 27.5 | 7.11 ± 4.57 | 4.18 ± 1.58 | 6.34 ± 4.5 | 0.39 ± 0.09 | – | 0.13 ± 0.06 | – | – | – | –
4 | COc1cc(/C=C/C(=O)O)ccc1O [Ferulic acid, ferulic acid] | 1610 ± 853 | 1580 ± 851 | 632 ± 244 | 5.3 ± 1.85 | 3.97 ± 0.8 | 4.66 ± 0.52 | 0.21 ± 0.1 | – | 0.15 ± 0.05 | 0.2 | 5 | – | –
5 | O=C1C[C@@H](c2ccc(O)cc2)Oc2cc(O)ccc21 [Liquiritigenin, liquiritigenin] | 328 ± 198 | 286 ± 144 | 33.2 ± 12 | 6.43 ± 2.42 | 8.85 ± 1.09 | 11.5 ± 3.02 | 0.19 ± 0.07 | double peak | 0.12 ± 0.06 | – | – | about 4 h | –
6 | C=C1CCC[C@]2(C)C[C@@H]3OC(=O)C(C)=C3C[C@@H]12 [Atractylenolide II, atractylenolide II] | 70.2 ± 25.6 | 69.5 ± 25.7 | 22.5 ± 8.04 | 3.54 ± 1.21 | 4.15 ± 0.82 | 4.43 ± 0.98 | 0.64 ± 0.29 | – | 0.21 ± 0.07 | – | – | – | –
7 | O=C(/C=C/c1ccc(O)cc1)c1ccc(O)cc1O [Isoliquiritigenin, isoliquiritigenin] | 185 ± 89.9 | 157 ± 76.7 | 33.6 ± 9.37 | 5.82 ± 3.25 | 5.98 ± 1.5 | 7.81 ± 3.39 | 0.39 ± 0.09 | double peak | 0.17 ± 0.12 | – | – | about 4 h | –
8 | O=C1C[C@@H](c2ccc(O[C@@H]3O[C@H](CO)[C@@H](O)[C@H](O)[C@H]3O)cc2)Oc2cc(O)ccc21 [Liquiritin, liquiritin] | 181 ± 90.9 | 163 ± 91.5 | 57.9 ± 36.6 | – | 5.7 ± 1.25 | 10.2 ± 6.79 | 0.39 ± 0.09 | double peak | 0.09 ± 0.04 | – | – | – | 9.32 ± 5.49
9 | C=C1CCC[C@]2(C)C[C@]3(O)OC(=O)C(C)=C3C[C@@H]12 [Atractylenolide III, atractylenolide III] | 1130 ± 487 | 1040 ± 497 | 230 ± 108 | 6.95 ± 2.65 | 6.23 ± 1.55 | 8.6 ± 3.13 | 0.67 ± 0.26 | – | 0.11 ± 0.05 | – | – | – | –

Now from value to compound:

Row | AUC(0-inf) (mean ± SD, n = 6) [ng·h/mL] | AUC(0-t) (mean ± SD, n = 6) [ng·h/mL] | Cmax (mean ± SD, n = 6) [ng/mL] | half-life (mean ± SD, n = 6) [h] | MRT last (mean ± SD) [h] | MRT inf (mean ± SD) [h] | Tmax [1] [h] | shape of plasma concentration-time curve | Kel (elimination rate constant) (mean ± SD, n = 6) | Tmax [2] [h] | time of first detection in plasma [min] | time of second maximal plasma concentration | t1/2 (mean ± SD, n = 6) [h] | Compound
10 | 18 ± 6.88 | 16.3 ± 5.15 | 6.05 ± 1.3 | 6.46 ± 2.57 | 6.61 ± 1.12 | 8.88 ± 3.49 | 0.42 ± 0.09 | double peaks | 0.12 ± 0.03 | – | – | – | – | C[C@H]1O[C@@H](O[C@H]2CC[C@@]3(C)[C@@H](CC[C@]4(C)[C@@H]3C=C[C@]35OC[C@@]6(CCC(C)(C)C[C@H]63)[C@@H](O)C[C@]54C)[C@]2(C)CO)[C@H](O)[C@@H](O[C@@H]2O[C@H](CO)[C@@H](O)[C@H](O)[C@H]2O)[C@H]1O [Saikosaponin a, saikosaponin a]
11 | 1620 ± 967 | 1580 ± 986 | 403 ± 201 | 4.75 ± 2.78 | 5.31 ± 0.72 | 6.37 ± 2.39 | 0.36 ± 0.13 | – | 0.18 ± 0.07 | – | – | – | – | CCC/C=C1\OC(=O)C2=C1CC[C@H](O)[C@H]2O [Senkyunolide I, senkyunolide I]
12 | 718 ± 227 | 697 ± 211 | 587 ± 181 | 4.82 ± 1.71 | 4.17 ± 1.38 | 4.91 ± 1.68 | 0.42 ± 0.09 | – | 0.16 ± 0.06 | – | – | – | – | C[C@@]12C[C@@]3(O)O[C@@H](O1)[C@]1(COC(=O)c4ccccc4)[C@H]3C[C@@]12O[C@@H]1O[C@H](CO)[C@@H](O)[C@H](O)[C@H]1O [Paeoniflorin, paeoniflorin]
13 | 782 ± 415 | 766 ± 410 | 491 ± 168 | 4.09 ± 1.24 | 6.4 ± 0.85 | 7.03 ± 1.02 | 0.1 ± 0.03 | – | 0.19 ± 0.07 | 0.1 | – | ~8 h | – | O=c1c(O)c(-c2ccc(O)c(O)c2)oc2cc(O)cc(O)c12 [Quercetin, quercetin]
14 | 5.93 ± 2.19 | 5.61 ± 1.92 | 0.96 ± 0.33 | 4.23 ± 2.83 | 6.49 ± 1.17 | 7.67 ± 2.7 | 0.42 ± 0.09 | double peaks | 0.22 ± 0.11 | – | – | – | – | C[C@@H]1O[C@@H](O[C@H]2[C@H](O)[C@@H](O)[C@H](O[C@H]3CC[C@]4(C)[C@H]5C=C[C@]67OC[C@@]8(CCC(C)(C)C[C@H]86)[C@@H](O)C[C@@]7(C)[C@]5(C)CC[C@H]4C3(C)C)O[C@@H]2CO[C@@H]2O[C@H](CO)[C@@H](O)[C@H](O)[C@H]2O)[C@H](O)[C@H](O)[C@H]1O [Saikosaponin c, saikosaponin c]
